Measurements published in ChEMBL document CHEMBL1926646 (Bioorg Med Chem, 2011).
The source made the active and inactive calls. The calls are words filed in the database; no cut-off is given here.

Key:
[1] = target: T1, Cytochrome P450 1A2 (Homo sapiens, UniProt P05177); assay: Induction of CYP1A2 at 50 uM; type: ADME
T1 sequence (P05177 whole entry): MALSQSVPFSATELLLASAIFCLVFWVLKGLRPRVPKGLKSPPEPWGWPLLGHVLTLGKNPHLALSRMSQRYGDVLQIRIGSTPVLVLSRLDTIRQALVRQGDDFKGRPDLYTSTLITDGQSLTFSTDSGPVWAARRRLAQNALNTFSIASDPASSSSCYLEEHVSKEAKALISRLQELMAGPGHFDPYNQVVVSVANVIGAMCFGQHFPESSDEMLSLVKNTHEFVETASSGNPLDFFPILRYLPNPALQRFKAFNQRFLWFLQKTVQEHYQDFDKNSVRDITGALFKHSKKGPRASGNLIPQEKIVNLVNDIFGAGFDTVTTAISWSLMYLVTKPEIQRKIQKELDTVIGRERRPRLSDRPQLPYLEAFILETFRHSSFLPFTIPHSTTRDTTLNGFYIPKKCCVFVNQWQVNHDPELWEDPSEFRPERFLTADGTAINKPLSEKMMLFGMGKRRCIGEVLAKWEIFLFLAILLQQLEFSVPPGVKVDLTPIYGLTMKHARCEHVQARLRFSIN

[2] = Oral bioavailability in Beagle dog at 0.5 mg/kg; type: ADME, organism-based, Canis lupus familiaris; conditions: in vivo
[3] = Plasma protein binding in human at 2000 ng/ml after 0.5 hrs by LC-MS/MS analysis; type: ADME, cell-free; conditions: read-out: PPB (converted)
[4] = target: Cytochrome P450 2D6 (Homo sapiens, UniProt P10635); assay: Inhibition of CYP2D6; type: ADME
Chain of Cytochrome P450 2D6 (P10635 whole entry): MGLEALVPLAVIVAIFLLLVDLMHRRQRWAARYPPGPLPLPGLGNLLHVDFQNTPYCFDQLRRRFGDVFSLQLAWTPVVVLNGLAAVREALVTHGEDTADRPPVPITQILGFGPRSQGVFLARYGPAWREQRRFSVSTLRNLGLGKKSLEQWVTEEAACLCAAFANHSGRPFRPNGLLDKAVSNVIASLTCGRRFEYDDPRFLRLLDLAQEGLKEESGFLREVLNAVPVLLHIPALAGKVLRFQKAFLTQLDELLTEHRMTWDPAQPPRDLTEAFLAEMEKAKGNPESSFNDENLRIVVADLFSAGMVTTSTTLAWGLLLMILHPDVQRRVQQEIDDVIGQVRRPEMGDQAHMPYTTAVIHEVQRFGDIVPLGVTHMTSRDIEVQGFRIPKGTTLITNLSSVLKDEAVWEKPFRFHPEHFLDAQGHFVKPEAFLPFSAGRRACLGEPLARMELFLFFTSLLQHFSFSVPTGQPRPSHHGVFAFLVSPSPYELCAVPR

[5] = Intrinsic clearance in dog liver microsomes; type: ADME, Canis lupus familiaris, Microsome
[6] = target: Dipeptidyl peptidase 9 (Homo sapiens, UniProt Q86TI2); assay: Inhibition of human recombinant DPP-9 expressed in Sf9 cells using H-Gly-Pro-AMC as substrate preincubated for 30 mins before substrate addition measured after 20 mins by fluorescence assay
Chain of Dipeptidyl peptidase 9 (Q86TI2 whole entry): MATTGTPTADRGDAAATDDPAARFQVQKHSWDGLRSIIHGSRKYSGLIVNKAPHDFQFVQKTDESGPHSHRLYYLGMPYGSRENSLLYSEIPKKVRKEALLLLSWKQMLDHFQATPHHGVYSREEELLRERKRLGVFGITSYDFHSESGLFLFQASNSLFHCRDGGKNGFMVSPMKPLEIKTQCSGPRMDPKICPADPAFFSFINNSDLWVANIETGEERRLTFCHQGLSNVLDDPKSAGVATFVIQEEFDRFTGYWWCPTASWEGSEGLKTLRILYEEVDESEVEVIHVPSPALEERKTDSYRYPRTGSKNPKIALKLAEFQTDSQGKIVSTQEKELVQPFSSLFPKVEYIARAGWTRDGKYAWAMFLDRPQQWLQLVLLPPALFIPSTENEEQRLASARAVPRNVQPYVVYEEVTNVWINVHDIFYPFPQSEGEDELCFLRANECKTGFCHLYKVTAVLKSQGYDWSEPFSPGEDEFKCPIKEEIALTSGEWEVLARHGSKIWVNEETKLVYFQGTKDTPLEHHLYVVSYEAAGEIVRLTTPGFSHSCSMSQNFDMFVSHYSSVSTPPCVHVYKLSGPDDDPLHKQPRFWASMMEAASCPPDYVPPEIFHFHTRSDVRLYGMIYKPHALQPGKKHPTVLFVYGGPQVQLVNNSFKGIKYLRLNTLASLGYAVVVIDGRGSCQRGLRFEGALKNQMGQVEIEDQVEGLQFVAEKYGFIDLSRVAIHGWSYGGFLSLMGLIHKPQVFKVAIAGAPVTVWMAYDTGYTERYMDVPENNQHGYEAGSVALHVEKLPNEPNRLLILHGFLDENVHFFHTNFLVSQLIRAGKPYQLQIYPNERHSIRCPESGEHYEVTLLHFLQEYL

[7] = target: T2, Cytochrome P450 2C8 (Homo sapiens, UniProt P10632); assay: Induction of CYP2C8 at 50 uM; type: ADME
T2 sequence (P10632 whole entry): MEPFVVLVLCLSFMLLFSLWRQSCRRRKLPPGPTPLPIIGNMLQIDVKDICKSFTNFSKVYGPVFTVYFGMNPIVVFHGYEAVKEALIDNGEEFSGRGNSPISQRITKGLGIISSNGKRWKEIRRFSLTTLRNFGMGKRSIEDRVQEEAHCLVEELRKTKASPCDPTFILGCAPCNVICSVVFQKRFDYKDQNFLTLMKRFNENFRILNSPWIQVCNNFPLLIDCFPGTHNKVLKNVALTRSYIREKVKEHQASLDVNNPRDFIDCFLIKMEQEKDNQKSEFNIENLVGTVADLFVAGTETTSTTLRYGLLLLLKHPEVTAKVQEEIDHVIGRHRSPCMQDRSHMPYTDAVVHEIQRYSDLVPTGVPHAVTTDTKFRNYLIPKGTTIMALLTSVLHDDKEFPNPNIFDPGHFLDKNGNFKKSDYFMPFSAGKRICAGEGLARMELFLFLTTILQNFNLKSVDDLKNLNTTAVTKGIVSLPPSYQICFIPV

[8] = Plasma protein binding in rat at 20 ng/ml after 0.5 hrs by LC-MS/MS analysis; type: ADME, cell-free; conditions: read-out: PPB (converted)
[9] = Tmax in Beagle dog at 0.5 mg/kg, po; type: ADME, organism-based, Canis lupus familiaris; parameters: dose 0.5 mg/kg, route oral; conditions: in vivo
[10] = Drug excretion in dog feces assessed as unchanged drug at 1 mg/kg, iv measured over 24 hrs; type: ADME, organism-based, Canis lupus familiaris; parameters: dose 1 mg/kg, route intravenous; conditions: faeces, read-out: AE
[11] = Intrinsic clearance in rat liver microsomes; type: ADME, Microsome
[12] = target: T1, Cytochrome P450 1A2; assay: Inhibition of CYP1A2; type: ADME
[13] = Cmax in Sprague-Dawley rat at 3 mg/kg, po; type: ADME, organism-based; parameters: dose 3 mg/kg, route oral; conditions: in vivo
[14] = Intrinsic clearance in monkey liver microsomes; type: ADME, Macaca mulatta, Microsome; conditions: rhesus monkey
[15] = Plasma protein binding in human at 20 ng/ml after 0.5 hrs by LC-MS/MS analysis; type: ADME, cell-free; conditions: read-out: PPB (converted)
[16] = Oral bioavailability in Sprague-Dawley rat at 10 mg/kg; type: ADME, organism-based; conditions: in vivo
[17] = test system: Rattus norvegicus; assay: Inhibition of plasma DPP-4 activity in Wistar/ST rat at 0.1 mg/kg, po pretreated 30 mins before glucose challenge measured for 2 hrs during oral glucose tolerance test; type: functional
[18] = test system: Rattus norvegicus; assay: Inhibition of plasma DPP-4 activity in Wistar/ST rat at 3 mg/kg, po pretreated 30 mins before glucose challenge measured for 2 hrs during oral glucose tolerance test; type: functional
[19] = Drug excretion in bile-duct cannulated Sprague-Dawley rat urine assessed as unchanged drug at 1 mg/kg, iv measured over 24 hrs; type: ADME, organism-based; parameters: dose 1 mg/kg, route intravenous; conditions: read-out: AE
[20] = target: Cytochrome P450 2C19 (Homo sapiens, UniProt P33261); assay: Inhibition of CYP2C19; type: ADME
Chain of Cytochrome P450 2C19 (P33261 whole entry): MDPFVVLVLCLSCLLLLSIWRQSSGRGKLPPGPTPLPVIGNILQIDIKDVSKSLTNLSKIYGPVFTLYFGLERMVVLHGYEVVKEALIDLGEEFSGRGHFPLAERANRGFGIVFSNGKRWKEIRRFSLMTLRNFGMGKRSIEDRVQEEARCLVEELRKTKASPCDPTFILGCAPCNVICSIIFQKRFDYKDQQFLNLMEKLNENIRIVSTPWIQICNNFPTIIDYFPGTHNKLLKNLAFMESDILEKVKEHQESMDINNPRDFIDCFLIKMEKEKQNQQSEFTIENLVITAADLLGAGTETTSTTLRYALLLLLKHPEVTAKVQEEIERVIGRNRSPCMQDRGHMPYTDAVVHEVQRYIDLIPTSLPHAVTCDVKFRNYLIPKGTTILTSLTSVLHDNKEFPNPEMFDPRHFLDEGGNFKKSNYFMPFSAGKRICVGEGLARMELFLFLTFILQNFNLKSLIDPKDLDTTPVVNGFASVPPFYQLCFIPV

[21] = test system: Rattus norvegicus; assay: AUC in Sprague-Dawley rat at 10 mg/kg, po; type: ADME, organism-based, Plasma; parameters: dose 10 mg/kg, route oral; conditions: in vivo
[22] = target: Voltage-gated inwardly rectifying potassium channel KCNH2 (Homo sapiens, UniProt Q12809); assay: Inhibition of human ERG expressed in HEK293 cells by patch clamp assay; type: cell-based
Chain of Voltage-gated inwardly rectifying potassium channel KCNH2 (Q12809 whole entry): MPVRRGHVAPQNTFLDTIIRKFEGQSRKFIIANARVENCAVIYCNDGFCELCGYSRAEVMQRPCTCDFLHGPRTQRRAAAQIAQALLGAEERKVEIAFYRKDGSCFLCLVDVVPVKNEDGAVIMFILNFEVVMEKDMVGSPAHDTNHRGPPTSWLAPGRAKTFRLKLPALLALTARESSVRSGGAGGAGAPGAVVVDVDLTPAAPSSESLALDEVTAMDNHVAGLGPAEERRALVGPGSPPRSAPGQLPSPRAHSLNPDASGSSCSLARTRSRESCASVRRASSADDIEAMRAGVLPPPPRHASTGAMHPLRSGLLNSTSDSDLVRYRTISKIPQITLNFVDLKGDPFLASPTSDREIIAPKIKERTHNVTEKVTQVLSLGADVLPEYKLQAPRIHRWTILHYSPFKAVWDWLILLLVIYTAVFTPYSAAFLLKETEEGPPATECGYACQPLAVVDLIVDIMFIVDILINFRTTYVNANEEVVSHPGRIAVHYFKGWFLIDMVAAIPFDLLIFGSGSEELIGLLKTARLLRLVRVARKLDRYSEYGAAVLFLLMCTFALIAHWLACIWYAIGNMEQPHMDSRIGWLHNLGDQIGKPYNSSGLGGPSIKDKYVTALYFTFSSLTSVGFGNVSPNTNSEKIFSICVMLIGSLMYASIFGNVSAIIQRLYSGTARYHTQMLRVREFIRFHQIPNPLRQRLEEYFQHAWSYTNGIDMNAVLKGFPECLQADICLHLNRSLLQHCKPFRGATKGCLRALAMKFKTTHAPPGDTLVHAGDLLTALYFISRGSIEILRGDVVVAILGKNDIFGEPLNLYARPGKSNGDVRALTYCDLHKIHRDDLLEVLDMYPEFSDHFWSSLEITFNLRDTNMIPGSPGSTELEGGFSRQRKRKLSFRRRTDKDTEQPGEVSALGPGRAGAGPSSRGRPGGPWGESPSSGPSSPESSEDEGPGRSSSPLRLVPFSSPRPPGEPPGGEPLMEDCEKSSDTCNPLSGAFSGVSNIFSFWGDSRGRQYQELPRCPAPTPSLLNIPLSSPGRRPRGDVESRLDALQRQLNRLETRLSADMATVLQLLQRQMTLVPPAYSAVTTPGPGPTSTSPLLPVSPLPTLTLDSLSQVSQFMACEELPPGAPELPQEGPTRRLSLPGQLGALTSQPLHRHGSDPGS

[23] = test system: Canis familiaris; assay: Volume of distribution at steady state in Beagle dog at 0.2 mg/kg, iv; type: ADME, organism-based, Canis lupus familiaris; parameters: dose 0.2 mg/kg, route intravenous; conditions: in vivo
[24] = Cmax in Beagle dog at 0.5 mg/kg, po; type: ADME, organism-based, Canis lupus familiaris; parameters: dose 0.5 mg/kg, route oral; conditions: in vivo
[25] = Tmax in Sprague-Dawley rat at 10 mg/kg, po; type: ADME, organism-based; parameters: dose 10 mg/kg, route oral; conditions: in vivo
[26] = Drug level in Sprague-Dawley rat plasma at 3 mg/kg at Tmax; type: ADME, organism-based; parameters: dose 3 mg/kg; conditions: read-out: Drug uptake
[27] = Terminal half life in Sprague-Dawley rat at 10 mg/kg, po; type: ADME, organism-based; parameters: dose 10 mg/kg, route oral; conditions: in vivo, read-out: beta t1/2 (converted)
[28] = Drug excretion in dog urine assessed as unchanged drug at 1 mg/kg, iv measured over 24 hrs; type: ADME, organism-based, Canis lupus familiaris; parameters: dose 1 mg/kg, route intravenous; conditions: read-out: AE
[29] = Cmax in Sprague-Dawley rat at 10 mg/kg, po; type: ADME, organism-based; parameters: dose 10 mg/kg, route oral; conditions: in vivo
[30] = test system: Salmonella typhimurium; assay: Mutagenic activity in Salmonella Typhimurium by Ames test; type: toxicity, organism-based; conditions: salmonella enterica subsp. enterica serovar typhimurium
[31] = Total clearance in Beagle dog at 0.2 mg/kg, iv; type: ADME, organism-based, Canis lupus familiaris; parameters: dose 0.2 mg/kg, route intravenous; conditions: in vivo
[32] = target: T3, Cytochrome P450 2C9 (Homo sapiens, UniProt P11712); assay: Induction of CYP2C9 at 50 uM; type: ADME
T3 sequence (P11712 whole entry): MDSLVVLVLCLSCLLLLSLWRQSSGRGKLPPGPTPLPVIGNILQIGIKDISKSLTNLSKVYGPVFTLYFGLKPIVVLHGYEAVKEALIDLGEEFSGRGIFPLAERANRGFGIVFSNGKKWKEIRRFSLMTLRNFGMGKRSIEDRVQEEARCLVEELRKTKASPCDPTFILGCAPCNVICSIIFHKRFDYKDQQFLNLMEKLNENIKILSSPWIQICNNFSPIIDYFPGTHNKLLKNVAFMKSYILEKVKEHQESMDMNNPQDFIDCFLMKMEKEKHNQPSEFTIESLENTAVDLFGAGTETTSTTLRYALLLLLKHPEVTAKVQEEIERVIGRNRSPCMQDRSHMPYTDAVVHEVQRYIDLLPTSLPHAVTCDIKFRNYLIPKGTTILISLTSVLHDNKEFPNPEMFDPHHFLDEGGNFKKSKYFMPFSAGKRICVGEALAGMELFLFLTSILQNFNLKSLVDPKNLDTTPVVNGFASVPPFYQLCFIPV

[33] = Total clearance in Sprague-Dawley rat at 1 mg/kg, iv; type: ADME, organism-based; parameters: dose 1 mg/kg, route intravenous; conditions: in vivo
[34] = Intrinsic clearance in human liver microsomes; type: ADME, Microsome
[35] = target: T4, Cytochrome P450 3A4 (Homo sapiens, UniProt P08684); assay: Inhibition of CYP3A4; type: ADME
T4 sequence (P08684 whole entry): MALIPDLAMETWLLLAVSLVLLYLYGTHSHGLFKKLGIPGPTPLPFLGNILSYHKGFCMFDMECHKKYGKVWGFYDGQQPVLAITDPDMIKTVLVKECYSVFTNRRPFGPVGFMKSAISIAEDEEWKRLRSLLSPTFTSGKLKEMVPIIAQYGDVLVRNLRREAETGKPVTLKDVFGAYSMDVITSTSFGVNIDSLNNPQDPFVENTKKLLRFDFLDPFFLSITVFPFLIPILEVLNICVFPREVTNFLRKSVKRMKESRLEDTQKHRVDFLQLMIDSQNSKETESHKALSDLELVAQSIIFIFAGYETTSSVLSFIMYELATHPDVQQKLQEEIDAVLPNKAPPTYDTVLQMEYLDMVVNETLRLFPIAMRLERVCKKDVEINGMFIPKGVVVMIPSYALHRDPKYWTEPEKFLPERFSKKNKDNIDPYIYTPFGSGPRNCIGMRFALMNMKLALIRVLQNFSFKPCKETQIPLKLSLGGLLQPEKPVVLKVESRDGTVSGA

[36] = target: T4, Cytochrome P450 3A4; assay: Induction of CYP3A4 at 50 uM; type: ADME
[37] = Plasma protein binding in dog at 2000 ng/ml after 0.5 hrs by LC-MS/MS analysis; type: ADME, cell-free, Canis lupus familiaris; conditions: read-out: PPB (converted)
[38] = Plasma protein binding in dog at 20 ng/ml after 0.5 hrs by LC-MS/MS analysis; type: ADME, cell-free, Canis lupus familiaris; conditions: read-out: PPB (converted)
[39] = target: Dipeptidyl peptidase 8 (Homo sapiens, UniProt Q6V1X1); assay: Inhibition of human recombinant DPP-8 expressed in Sf9 cells using H-Gly-Pro-AMC as substrate preincubated for 30 mins before substrate addition measured after 20 mins by fluorescence assay
Chain of Dipeptidyl peptidase 8 (Q6V1X1 whole entry): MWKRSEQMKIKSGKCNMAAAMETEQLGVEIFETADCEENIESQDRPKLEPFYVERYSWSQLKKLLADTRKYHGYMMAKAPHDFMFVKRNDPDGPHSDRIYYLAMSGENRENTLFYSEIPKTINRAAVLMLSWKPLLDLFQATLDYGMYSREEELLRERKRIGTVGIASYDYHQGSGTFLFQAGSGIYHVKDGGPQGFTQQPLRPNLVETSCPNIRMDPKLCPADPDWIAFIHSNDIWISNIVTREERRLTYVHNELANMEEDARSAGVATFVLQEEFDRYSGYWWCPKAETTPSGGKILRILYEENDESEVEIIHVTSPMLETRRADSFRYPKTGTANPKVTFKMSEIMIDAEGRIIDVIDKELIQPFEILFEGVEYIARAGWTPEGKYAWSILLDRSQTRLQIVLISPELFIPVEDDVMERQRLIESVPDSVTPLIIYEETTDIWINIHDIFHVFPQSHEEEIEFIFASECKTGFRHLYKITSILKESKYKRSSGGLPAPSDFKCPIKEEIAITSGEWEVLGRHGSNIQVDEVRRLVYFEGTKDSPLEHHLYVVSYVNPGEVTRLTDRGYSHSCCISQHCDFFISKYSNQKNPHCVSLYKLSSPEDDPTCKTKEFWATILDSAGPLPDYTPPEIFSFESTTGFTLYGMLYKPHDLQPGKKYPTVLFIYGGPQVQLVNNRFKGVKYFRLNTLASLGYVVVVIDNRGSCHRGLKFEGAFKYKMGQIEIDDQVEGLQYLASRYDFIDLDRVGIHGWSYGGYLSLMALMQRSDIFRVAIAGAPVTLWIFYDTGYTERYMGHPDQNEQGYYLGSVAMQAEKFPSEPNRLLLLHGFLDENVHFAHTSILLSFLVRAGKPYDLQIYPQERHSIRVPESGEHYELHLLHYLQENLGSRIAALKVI

[40] = Tmax in Sprague-Dawley rat at 3 mg/kg, po; type: ADME, organism-based; parameters: dose 3 mg/kg, route oral; conditions: in vivo
[41] = Terminal half life in Beagle dog at 0.5 mg/kg, po; type: ADME, organism-based, Canis lupus familiaris; parameters: dose 0.5 mg/kg, route oral; conditions: in vivo, read-out: beta t1/2 (converted)
[42] = Plasma protein binding in rat at 2000 ng/ml after 0.5 hrs by LC-MS/MS analysis; type: ADME, cell-free; conditions: read-out: PPB (converted)
[43] = Drug excretion in bile-duct cannulated Sprague-Dawley rat bile assessed as unchanged drug at 5 mg/kg, iv measured over 24 hrs; type: ADME, organism-based; parameters: dose 5 mg/kg, route intravenous; conditions: read-out: AE
[44] = Drug excretion in bile-duct cannulated Sprague-Dawley rat bile assessed as unchanged drug at 1 mg/kg, iv measured over 24 hrs; type: ADME, organism-based; parameters: dose 1 mg/kg, route intravenous; conditions: read-out: AE
[45] = Drug excretion in bile-duct cannulated Sprague-Dawley rat urine assessed as unchanged drug at 5 mg/kg, iv measured over 24 hrs; type: ADME, organism-based; parameters: dose 5 mg/kg, route intravenous; conditions: read-out: AE
[46] = target: T3, Cytochrome P450 2C9; assay: Inhibition of CYP2C9; type: ADME
[47] = test system: Rattus norvegicus; assay: Volume of distribution at steady state in Sprague-Dawley rat at 1 mg/kg, iv; type: ADME, organism-based; parameters: dose 1 mg/kg, route intravenous; conditions: in vivo
[48] = test system: Canis familiaris; assay: AUC in Beagle dog at 0.5 mg/kg, po; type: ADME, organism-based, Canis lupus familiaris, Plasma; parameters: dose 0.5 mg/kg, route oral; conditions: in vivo
[49] = target: Dipeptidyl peptidase 2 (Homo sapiens, UniProt Q9UHL4); assay: Inhibition of DPP-2 expressed in human Caco-2 cells using H-Lys-Ala-AMC as substrate preincubated for 30 mins before substrate addition measured after 20 mins by fluorescence assay; type: cell-based
[50] = test system: Rattus norvegicus; assay: Antidiabetic activity in Wistar/ST rat plasma assessed as reduction in glucose AUC (0 to 60 mins) at 1 mg/kg, po pretreated 30 mins before glucose challenge measured for 2 hrs by oral glucose tolerance test; type: functional, organism-based; parameters: dose 1 mg/kg
[51] = test system: Rattus norvegicus; assay: Inhibition of plasma DPP-4 activity in orally dosed Wistar/ST rat pretreated 30 mins before glucose challenge measured for 2 hrs during oral glucose tolerance test; type: functional, organism-based
[52] = test system: Rattus norvegicus; assay: Increase in insulin level in Wistar/ST rat at 0.1 to 1 mg/kg, po pretreated 30 mins before glucose challenge measured after 10 mins; type: functional, organism-based
[53] = Oral bioavailability in Sprague-Dawley rat at 5 mg/kg; type: ADME, organism-based; conditions: in vivo

Cc1cc2ncc(C(=O)NCC(C)(C)NCC(=O)N3CCC[C@H]3C#N)cn2n1.Cl [ANAGLIPTIN HYDROCHLORIDE]
Activity [1]: Not Active
bioavailability [2]: 100%
fraction unbound at 0.5 h, 2000 ng/ml [3]: 0.736
IC50 [4]: > 10 µM
CLint scaled [5]: 1.67 mL/min/kg
IC50 [6]: 60 µM
Activity [7]: Not Active
fraction unbound at 0.5 h, 20 ng/ml [8]: 0.227
Tmax [9]: 1.5 h
dose excreted at 24 h [10]: 24%
CLint scaled [11]: 23.3 mL/min/kg
IC50 [12]: > 10 µM
Cmax [13]: 62 ng/mL
CLint scaled [14]: 8.33 mL/min/kg
fraction unbound at 0.5 h, 20 ng/ml [15]: 0.708
bioavailability [16]: 23%
inhibition in vivo at 0.1 mg/kg [17]: 30%
inhibition in vivo at 3 mg/kg [18]: 95%
dose excreted at 24 h [19]: 30%
IC50 [20]: > 10 µM
AUC [21]: 1160 ng·h/mL
IC50 [22]: > 500 µM
Vdss [23]: 0.83 L/kg
Cmax [24]: 261 ng/mL
Tmax [25]: 0.8 h
Cmax [26]: 14 nM
half-life [27]: 1.9 h
dose excreted at 24 h [28]: 32%
Cmax [29]: 309 ng/mL
Activity [30]: Non-toxic
clearance [31]: 10.8 mL/min/kg
Activity [32]: Not Active
clearance [33]: 33.3 mL/min/kg
CLint scaled [34]: 5 mL/min/kg
IC50 [35]: > 10 µM
Activity [36]: Not Active
fraction unbound at 0.5 h, 2000 ng/ml [37]: 0.482
fraction unbound at 0.5 h, 20 ng/ml [38]: 0.352
IC50 [39]: 68 µM
Tmax [40]: 2.3 h
half-life [41]: 1 h
fraction unbound at 0.5 h, 2000 ng/ml [42]: 0.229
dose excreted at 24 h [43]: 14%
dose excreted at 24 h [44]: 13%
dose excreted at 24 h [45]: 41%
IC50 [46]: > 10 µM
Vdss [47]: 0.68 L/kg
AUC [48]: 824 ng·h/mL

Cc1cc2ncc(C(=O)NCC(C)(C)NCC(=O)N3CCC[C@H]3C#N)cn2n1 [ANAGLIPTIN]
IC50 [49]: 177 µM

Cc1cc2ncc(C(=O)NCC(C)(C)NCC(=O)N3CCC[C@H]3C#N)cn2n1
Activity [50]: Active
inhibition [51]: Dose-dependent effect
Activity [52]: Active

Cc1cc2ncc(C(=O)NCC(C)(C)NCC(=O)N3CCC[C@H]3C#N)c(O)n2n1.Cl
bioavailability [53]: 4.1%
